Measurements: publication PMC10044725, “Antioxidant, Anti-Inflammatory and Anti-Diabetic Activities of Tectona grandis Methanolic Extracts, Fractions, and Isolated Compounds” (Antioxidants, 2023)
Marks after values point to notes of the source that are not given here.

What was measured:
[1] = DPPH free radical scavenging assay; conditions: isolated compounds; half scavenging concentration; read-out: DPPH Assay SC50
Protocol: The DPPH free radical scavenging activities of T. grandis methanolic extract, different fractions and its compounds were conducted according to Dr. Yang et al.. […] The absorbance was measured using a microplate reader at 517 nm, and ascorbic acid was used as a positive control. The DPPH scavenging activity was calculated according to the following formula: Scavenging activity (%) = [1 − (A1 − A2)/(A3 − A4)] × 100% (1) where A1 is the OD value of the tested samples, A2 is the OD value of the sample control, A3 is the OD value of the negative control and A4 is the OD value of the blank control. The analysis was performed in triplicates and the results were described as SC50 values.

[2] = ABTS radical cation scavenging assay (Trolox equivalent); conditions: compounds at 50 μM
Protocol: The ABTS radical cation (ABTS•+) scavenging activities were conducted in accordance with the instructions for the ABTS kit. The total antioxidant activity values were estimated using the Trolox equivalent antioxidant capacity test. The detection concentration of methanolic extract and different fractions was 80 μg/mL, and the detection concentration of compounds (1–23) was 50 μM. […] Then, 190 μL of ABTS working reagent was mixed with 10 μL sample and incubated at room temperature for 5 min. The absorbance was then measured using a microplate reader at 734 nm, and the scavenging activity was calculated according to Equation (2). The blank control group used DMSO to replace the sample. […] The analysis was performed in triplicates, 1.424, 0.0012 was a constant.

[3] = Ferric reducing antioxidant power (FRAP) assay; conditions: compounds at 50 μM; Trolox equivalent
Protocol: The FRAP assay was determined in accordance with the instructions for the FRAP kit. The total antioxidant activity values were estimated using the Trolox equivalent antioxidant capacity test. Initially, the detection concentration of methanolic extract and different fractions was 80 μg/mL, and the detection concentration of compounds (1–23) was 50 μM. Then, 190 μL of FRAP working reagent was mixed with 10 μL sample and incubated at room temperature for 20 min. The absorbance was then measured using a microplate reader at 593 nm, and the scavenging activity was calculated according to Equation (3). The blank control group used DMSO to replace the sample. […] The analysis was performed in triplicates, 0.8054, 0.0134 was a constant.

[4] = test system: pBR322 DNA; experiment: Prevention of AAPH-induced DNA oxidative damage; conditions: AAPH 20 mM; p < 0.0001 vs model
Protocol: The effects of T. grandis methanolic extract, different fractions and its compounds 15, 19 and 23 on the prevention of DNA oxidative damage were carried out using the method of Han et al.. Initially, 8 μL pBR322 DNA (50 μg/mL) in PBS (0.1 M, pH 6.8) was mixed with different concentrations of T. grandis fractions and its compounds (12 μL) and incubated in water at 37 °C for 30 min. Then, 5 μL AAPH (20 mM) was added to the mixture and the reaction continued for 60 min. The control group used the same volume of PBS (0.1 M, pH 6.8) to replace AAPH. The pre-treated samples were mixed with 5 × DNA loading buffer, and the mixture (8 μL) was taken for 1.0% agarose gel electrophoresis for 25 min. After electrophoresis, the gels were stained with ethidium bromide for 20 min. Finally, images were taken using a DNA gel imaging system (ChampChemi 610, Beijing sage creation Co., Ltd. Beijing, China).

[5] = test system: BSA; experiment: Prevention of AAPH-induced protein oxidative damage; design: species or system Bovine; conditions: AAPH 160 mM; residual BSA
Protocol: The protective activities of T. grandis methanolic extract, different fractions and its compounds 15 and 23 on protein oxidative damage were carried out using the method of Yang et al.. Initially, 20 μL BSA solutions (1 mg/mL) in PBS (0.1 M, pH 6.8) were mixed with different concentrations of fractions (40 μL) and compounds (40 μL) and incubated in water at 37 °C for 30 min. Then, 40 μL AAPH (160 mM) was added to the mixture and the reaction continued for 4 h. The control group used the same volume of PBS (0.1 M, pH 6.8) to replace AAPH. The pre-treated samples were added to 5 × SDS loading buffer and treated in water at 95 °C for 15 min. […] After electrophoresis, the gels were stained with Coomassie brilliant blue R-250 dye (0.25%, w/v), and then the gels were decolorized with the decolorizing solution. Finally, images were taken using the SDS-PAGE gel imaging system (ChampChemi 610, China) and the grayscale of Western blot was analyzed using Image J software.

[6] = test system: IL-1β; experiment: IL-1β secretion in LPS-stimulated RAW 264.7 macrophages (ELISA); type: cell-based, mouse; conditions: 40 µM, LPS 1 µg/mL, 48 h, vs model control (p < 0.0001)
Protocol: In order to increase cytokine production, macrophages were treated with LPS at a final concentration of 1 µg/mL, and then with T. grandis compounds at 40 µM. The compounds were solubilized in DMEM medium containing 0.1% DMSO. Dexamethasone was employed as a positive control (5 µg/mL). A centrifuge was used to separate the supernatant from the cells after 48 h of incubation, with three replicates per group. Quantification of TNF-α, IL-1β and IL-6 secretion was achieved by following the ELISA manufacturer's instructions. Then, absorbance was measured at 450 nm. Relative TNF-α, IL-1β and IL-6 expression was calculated according to Equation (4). Following the inflammatory factor test, cell viability was detected by CellTiter96® Aqueous One Solution Cell Proliferation Assay. Then, 20 μL/well CellTiter96® Aqueous One Solution Cell Growth Assay reagent was added to the plate and incubated at 37 °C for 8 h, absorbance was measured at […] and relative cell viability was calculated according to Equation (5). Relative content of inflammatory cytokines (%) = (A1/A2)/A3 × 100%(4) where A1 is the concentrations value of inflammatory cytokines of each group, A2 is the relative cell viability of each group (model group is 100) and A3 is the concentration of inflammatory cytokines of model group. Cell viability rate (%) = B1/B2 × 100%(5) where B1 is the OD value of each fraction group or positive control group and B2 is the OD value of the model control.

[7] = test system: α-glucosidase; experiment: α-Glucosidase inhibition assay (pNPG); type: biochemical
Protocol: The inhibitory effect on α-glucosidase was measured according to the previous report method with slight modifications. The 20 mM sample dissolved in DMSO was diluted to 50 μM in PBS, 10 μL sample was mixed with 50 μL of 0.1 μ/mL α-glucosidase solution in 0.1 M phosphate buffer (pH 6.5) in a 96-well microplate and 10 μL PBS was used as a blank control. The mixture was incubated at 37 °C for 10 min before adding 40 µL of 5 mM 4-nitrophenyl-α-D-glucopyranoside to each well. After 30 min of incubation at 37 °C, the reaction was terminated by adding 50 μL of 0.1 M Na2CO3 to this mixture. The released 4-nitrophenol absorbance measurements were carried out using a microplate reader (SpectraMax190, USA) at 405 nm.

O=C(O)c1cc(O)c(O)c(O)c1 [Compound 23, gallic acid]
EC50 [1]: 320 ± 70 nM
ABTS Assay [2]: 0.95 ± 0.02 ^a mmol Trolox/L
FRAP Assay [3]: 1.03 ± 0.01 ^a mmol Trolox/L
concentration at which a protective effect against DNA oxidative damage begins [4]: 0.6 mM
concentration at which a protective effect against protein oxidative damage begins [5]: 320 µM
effect on IL-1β inflammatory factor level [6]: significant decrease
Inhibitory Rate (%) ([7]; at a concentration of 50 µM): 21.89 ± 3.03 ^c %
IC50 ([7]; compounds): > 50000 nM
